From US8664391B2, “Amide compounds as boosters of antivirals” (Janssen R&D Ireland Ltd, priority 2008, dated 2014) come the findings set out here.

Like-named read-outs stand apart in the source and are kept apart here.

The target in one series is T1, CYP2C19 (Homo sapiens, UniProt P33261).
T1 construct: host or cells: E. coli
Kind of series: CYP450 inhibition, fluorescent substrate assay, CYP2C19. Particulars: E. coli expressed CYP2C19, pH 7.4, probe CEC (25 μM), 10 μM test compound, substrate CEC 25 μM, read-out: 2C19-CEC % inh. The class given is biochemical. How it is done:
(§1) Assay 4: CYP450 Inhibition […] This fluorescent molecule was measured using a fluorescent plate reader (Victor2 (Wallac) or Fluoroskan (Labsystems)). Compounds inhibiting the enzymatic reaction will result in a decrease of fluorescent signal. CYP P450 enzymes were prepared in house or commercially bought and stored at −80° C. [table] The assay was performed in black 96 well Costar plates. Test compounds were added to a CYP P450 enzyme solution in the presence of an NADPH generating system. After 5 min of preincubation at 37° C., the freshly prepared, phosphate buffered (pH 7.4) substrate solution was added. Known CYP P450 inhibitors were used as positive controls, negative controls were run without CYP P450 enzyme. For final reaction mixture concentrations, see Table 6. […] Then, the reaction was stopped by the addition of 200 μl acetonitrile, and the fluorescent signal was detected. [table] […] Inhibition of TMC114 Metabolisation

A further series deals with T2, CYP2D6 (Homo sapiens, UniProt P10635).
T2 construct: host or cells: E. coli
Kind of series: CYP450 inhibition, fluorescent substrate assay, CYP2D6. The class given is biochemical. Particulars: E. coli expressed CYP2D6, pH 7.4, probe AMMC (3 μM), 10 μM test compound, substrate AMMC 3 μM, read-out: 2D6-AMMC % inh. Here is the method: as §1

In the next series the target is T3, CYP1A2 (Homo sapiens, UniProt P05177).
T3 construct: host or cells: E. coli
T3 sequence (P05177 1-516): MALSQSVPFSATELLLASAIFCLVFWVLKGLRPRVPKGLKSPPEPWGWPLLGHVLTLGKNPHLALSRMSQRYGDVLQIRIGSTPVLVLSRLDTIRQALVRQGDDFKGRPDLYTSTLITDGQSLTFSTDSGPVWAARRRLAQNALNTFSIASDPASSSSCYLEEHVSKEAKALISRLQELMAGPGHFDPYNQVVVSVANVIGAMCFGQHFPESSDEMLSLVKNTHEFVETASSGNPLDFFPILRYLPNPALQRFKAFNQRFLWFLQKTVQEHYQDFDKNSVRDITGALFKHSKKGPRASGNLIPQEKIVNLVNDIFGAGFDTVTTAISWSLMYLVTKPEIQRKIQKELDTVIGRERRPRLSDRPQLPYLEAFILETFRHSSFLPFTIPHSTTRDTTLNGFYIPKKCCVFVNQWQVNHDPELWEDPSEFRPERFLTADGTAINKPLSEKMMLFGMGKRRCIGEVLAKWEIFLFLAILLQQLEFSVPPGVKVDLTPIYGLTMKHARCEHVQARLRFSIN
Kind of series: CYP450 inhibition, fluorescent substrate assay, CYP1A2. The class given is biochemical. The conditions noted are these: E. coli expressed CYP1A2, pH 7.4, probe CEC (5 μM), 10 μM test compound, substrate CEC 5 μM, read-out: 1A2-CEC % inh. Here is the method: as §1

Another series in a line: in vitro. The conditions noted are these: pH 7.4. The class given is in vitro ADME, human. The text has this: Assay 3: Metabolic Stability of Test Compounds (HLM15′)
Sub-cellular tissue preparations are made according to Gorrod et al. (Xenobiotica, 5, pp. 453-462 (1975)) by centrifugal separation after mechanical homogenization of tissue. Human liver tissue is rinsed in ice-cold 0.1 M Tris-HCl (pH 7.4) buffer to wash excess blood. Tissue is then blotted dry, weighed and chopped coarsely using surgical scissors. The tissue pieces are homogenized in 3 volumes of ice-cold 0.1 M phosphate buffer (pH 7.4) using either a Potter-S (Braun, Italy) equipped with a Teflon pestle or a Sorvall Omni-Mix homogenizer, for 7×10 sec. In both cases, the vessel is kept in/on ice during the homogenization process. Tissue homogenates are centrifuged at 9000×g for 20 min at 4° C. using a Sorvall centrifuge or Beckman Ultracentrifuge. The resulting supernatant can be stored at −80° C. and is designated ‘S9’. The S9 fraction is centrifuged at 100,000×g for 60 min at 4° C. using a Beckman ultracentrifuge. The resulting supernatant is carefully aspirated, aliquoted and designated ‘cytosol’. The pellet is re-suspended in 0.1 M phosphate buffer (pH 7.4) in a final volume of 1 ml per 0.5 g original tissue weight and designated ‘microsomes’. All sub-cellular fractions are aliquoted, immediately frozen in liquid nitrogen and stored at −80° C. until use.
Heat-inactivated (10 min at 95° C.) ‘S9’ or microsomes were used for blank experiments. Reaction mixtures were incubated at 37° C. for 5 min, after which the reaction was started by the addition of 0.8 mM β-NADP. The reaction was incubated for 0 or 15 min. Next, the reaction was stopped by addition of 2 volumes of DMSO (or acetonitrile). Samples were centrifuged (10 min, 900×g) and analyzed by LC-MS.

For series [1], the system named is wild-type HIV-1 IIIB strain. Kind of series: Antiviral activity in MT4 LTR-EGFP cellular assay. The class given is cell-based. Particulars: read-out: Antiviral Activity IIIB pEC50 (converted). Here is the method: (§2) Assay 1 &2: Antiviral Activity/Toxicity
The compounds of the present invention were tested for antiviral activity in a cellular assay, which was performed according to the following procedure.
The human T-cell line MT4 is engineered with Green Fluorescent Protein (GFP) and an HIV-specific promoter, HIV-1 long terminal repeat (LTR). This cell line is designated MT4 LTR-EGFP, and can be used for the in vitro evaluation of anti-HIV activity of investigational compounds. In HIV-1 infected cells, the Tat protein is produced which upregulates the LTR promotor and finally leads to stimulation of the GFP reporter production, allowing measuring ongoing HIV-infection fluorometrically.
(§3) The ratio of CC50 to EC50 is defined as the selectivity index (SI) and is an indication of the selectivity of the anti-HIV activity of the inhibitor. The ultimate monitoring of HIV-1 infection and cytotoxicity is done using a scanning microscope. Image analysis allows very sensitive detection of viral infection. Measurements are done before cell necrosis, which usually takes place about five days after infection, in particular measurements are performed three days after infection.
A pEC50 value corresponds to −log10(EC50). A pCC50 value corresponds to −log10(CC50).

The target of another series is CYP2C9 (Homo sapiens, UniProt P11712). Kind of series: CYP450 inhibition, fluorescent substrate assay, CYP2C9. The class given is biochemical. Here is the method:
as §1

The next series deals with T4, CYP3A4 (Homo sapiens, UniProt P08684).
T4 construct: host or cells: E. coli
Kind of series: CYP450 inhibition, fluorescent substrate assay, CYP3A4. The class given is biochemical. Particulars: 10 μM test compound; for inhibition at 10 min, 10 μM: E. coli expressed CYP3A4, pH 7.4, probe DBF (1 μM), substrate DBF 1 μM, read-out: 3A4-DBF % inh. Here is the method: as §1

The nature of series [2]: Cytotoxicity in mock-infected MT4 CMV-EGFP cells. The class given is cell-based. The conditions noted are these: human, pCC50 = -log10(CC50), read-out: Toxicity MT4 pCC50 (converted).
From the text: as §2
Analogously, MT4 cells are engineered with GFP and the constitutional cytomegalovirus (CMV) promotor. This cell line is designated MT4 CMV-EGFP, and can be used for the in vitro evaluation of cytotoxicity of investigational compounds. In this cell line, GFP levels are comparably to those of infected MT4 LTR-EGFP cells. Cytotoxic investigational compounds reduce GFP levels of mock-infected MT4 CMV-EGFP cells.
as §3, with “Effective concentration values such as 50% effective concentration (EC50) can be determined and are usually expressed in μM. An EC50 value is defined as the concentration of test compound that reduces the fluorescence of HIV-infected cells by 50%. The 50% cytotoxic concentration (CC50 in μM) is defined as the concentration of test compound that reduces fluorescence of the mock-infected cells by 50%. The ratio” for “The ratio”
Table 2 lists pEC50 values against the wild-type HIV-1 IIIB strain as well as pCC50 values for a selected number of compounds of the invention. A pEC50 value corresponds to −log10(EC50). A pCC50 value corresponds to −log10(CC50).

Setting [3] is: Human immunodeficiency virus 1, 72 h, wild-type HIV-1 IIIB, MT4 LTR-EGFP cells, three days after infection, pEC50 = -log10(EC50).
Where [4] appears, read: E. coli expressed CYP3A4, pH 7.4, probe BFC (150 μM), substrate BFC 150 μM, read-out: 3A4-BFC % inh.
Setting [5] is: E. coli expressed CYP3A4, pH 7.4, probe BQ (60 μM), substrate BQ 60 μM, read-out: 3A4-BQ % inh.

T4 sequence (P08684 whole entry): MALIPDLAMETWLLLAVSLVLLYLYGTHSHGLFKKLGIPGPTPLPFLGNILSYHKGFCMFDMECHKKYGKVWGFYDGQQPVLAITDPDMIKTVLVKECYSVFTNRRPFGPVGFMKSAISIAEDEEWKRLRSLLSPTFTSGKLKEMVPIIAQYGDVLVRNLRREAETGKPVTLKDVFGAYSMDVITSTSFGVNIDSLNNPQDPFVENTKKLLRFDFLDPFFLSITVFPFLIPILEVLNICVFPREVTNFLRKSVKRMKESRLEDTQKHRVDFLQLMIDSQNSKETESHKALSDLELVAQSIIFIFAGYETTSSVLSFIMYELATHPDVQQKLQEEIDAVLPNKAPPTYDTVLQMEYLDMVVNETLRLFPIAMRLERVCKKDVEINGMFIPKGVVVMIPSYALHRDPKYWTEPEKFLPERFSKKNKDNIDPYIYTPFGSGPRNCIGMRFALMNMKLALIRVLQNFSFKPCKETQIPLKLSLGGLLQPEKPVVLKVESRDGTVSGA
T2 sequence (P10635 whole entry): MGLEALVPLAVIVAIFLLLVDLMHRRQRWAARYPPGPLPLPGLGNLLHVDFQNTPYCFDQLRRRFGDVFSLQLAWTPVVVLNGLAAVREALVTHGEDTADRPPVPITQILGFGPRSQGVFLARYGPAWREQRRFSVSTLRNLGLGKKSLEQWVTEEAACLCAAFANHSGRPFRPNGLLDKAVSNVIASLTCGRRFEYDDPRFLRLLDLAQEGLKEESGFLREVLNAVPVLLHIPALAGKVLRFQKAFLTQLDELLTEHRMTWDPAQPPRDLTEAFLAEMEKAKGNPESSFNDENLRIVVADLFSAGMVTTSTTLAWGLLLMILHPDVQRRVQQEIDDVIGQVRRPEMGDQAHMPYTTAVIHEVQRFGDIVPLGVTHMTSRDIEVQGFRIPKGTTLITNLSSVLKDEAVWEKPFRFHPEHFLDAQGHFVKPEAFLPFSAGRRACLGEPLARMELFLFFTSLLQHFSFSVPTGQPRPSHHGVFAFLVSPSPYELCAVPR
T1 sequence (P33261 whole entry): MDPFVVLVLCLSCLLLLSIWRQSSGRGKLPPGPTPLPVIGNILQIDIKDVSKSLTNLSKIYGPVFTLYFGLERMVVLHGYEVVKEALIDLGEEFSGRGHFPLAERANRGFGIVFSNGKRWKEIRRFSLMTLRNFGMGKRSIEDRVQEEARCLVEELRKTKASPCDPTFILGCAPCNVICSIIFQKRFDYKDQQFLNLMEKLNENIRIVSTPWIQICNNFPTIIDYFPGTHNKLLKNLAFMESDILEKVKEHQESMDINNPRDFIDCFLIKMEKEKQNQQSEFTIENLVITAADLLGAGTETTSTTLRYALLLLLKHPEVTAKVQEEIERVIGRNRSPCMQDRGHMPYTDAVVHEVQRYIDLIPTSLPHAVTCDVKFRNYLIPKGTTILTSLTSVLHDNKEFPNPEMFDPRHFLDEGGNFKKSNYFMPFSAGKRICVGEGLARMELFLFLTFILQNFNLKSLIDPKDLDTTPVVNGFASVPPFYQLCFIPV
Chain of CYP2C9 (P11712 whole entry): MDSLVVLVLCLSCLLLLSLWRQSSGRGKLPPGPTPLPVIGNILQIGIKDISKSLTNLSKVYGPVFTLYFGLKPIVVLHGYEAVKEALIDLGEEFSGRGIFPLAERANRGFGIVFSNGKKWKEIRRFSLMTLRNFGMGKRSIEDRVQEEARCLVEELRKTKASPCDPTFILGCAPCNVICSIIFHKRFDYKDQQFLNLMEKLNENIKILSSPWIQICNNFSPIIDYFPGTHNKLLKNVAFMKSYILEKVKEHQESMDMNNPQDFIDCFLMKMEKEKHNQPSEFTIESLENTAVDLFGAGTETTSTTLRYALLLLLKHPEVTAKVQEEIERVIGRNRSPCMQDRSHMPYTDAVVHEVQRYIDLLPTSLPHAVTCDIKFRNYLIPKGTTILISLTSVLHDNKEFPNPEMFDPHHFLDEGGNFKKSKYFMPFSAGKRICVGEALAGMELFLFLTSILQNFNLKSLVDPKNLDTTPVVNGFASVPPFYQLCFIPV

For the compound `Cc1cccc(C(=O)N(CC(C)C)C[C@@H](O)[C@H](Cc2ccccc2)NC(=O)OCc2cncs2)c1` [Compound C10], the inhibition at 30 min, 10 μM at CYP2C19 is 92%; against CYP2C9 (pH 7.4), 96%; on CYP3A4 (setting [4]) it was 95%; at CYP3A4 (setting [5]), 79%. For the same compound, the inhibition at 45 min, 10 μM at CYP2D6 turned out to be 62%. For the same compound, the inhibition at 15 min, 10 μM at CYP1A2 came to 33%. The compound further had a recovery at 15 min, 5 μM in the series “in vitro” (human) of 47%. Moreover, the EC50 in series [1] (setting [3]) is over 100 µM. For the same compound, the inhibition at 10 min, 10 μM on CYP3A4 turned out to be 93%. For the same compound, the CC50 at 3 days in series [2] was over 100 µM.
In the case of `CC(C)CN(C[C@@H](O)[C@H](Cc1ccccc1)NC(=O)OCc1cncs1)C(=O)c1ccccn1` [Compound C9], the inhibition at 30 min, 10 μM on CYP2C19 was determined as 64%; against CYP2C9 (pH 7.4), 85%; on CYP3A4 (setting [4]), 91%; at CYP3A4 (setting [5]), 78%. Further, the inhibition at 45 min, 10 μM on CYP2D6 came to 66%. Also, the inhibition at 15 min, 10 μM at CYP1A2 came out at 4%. Also, in the series “in vitro” (human), the recovery at 15 min, 5 μM stood at 55%. In addition, the EC50 in series [1] (setting [3]) was over 100 µM. On CYP3A4, the inhibition at 10 min, 10 μM amounted to 89%. In addition, the CC50 at 3 days in series [2] is over 100 µM.
Consider `CC(C)CN(C[C@@H](O)[C@H](Cc1ccccc1)NC(=O)OCc1cncs1)C(=O)c1ccc(Br)cc1` [Compound C18], for which the inhibition at 30 min, 10 μM at CYP2C19 was found to be 93%; at CYP2C9 (pH 7.4, 10 μM test compound, substrate MFC 200 μM, 30 min, read-out: 2C9-MFC % inh.) it was 98%; on CYP3A4 (setting [4]), 83%; at CYP3A4 (setting [5]), 84%. Also, on CYP2D6, the inhibition at 45 min, 10 μM turned out to be 64%. Besides, the inhibition at 15 min, 10 μM at CYP1A2 was determined as 63%. Besides, the recovery at 15 min, 5 μM in the series “in vitro” (human liver microsomes 1 mg/ml, 5 μM test compound, 15 min, 37° C., read-out: % recovery HLM15) was found to be 57%. For the same compound, in series [1] (Human immunodeficiency virus 1, IIIB, 72 h), the EC50 was 38.9 µM. The inhibition at 10 min, 10 μM at CYP3A4 was 94%. In addition, in series [2], the CC50 at 3 days was 41.7 µM.
On to `CC(C)CN(C[C@@H](O)[C@H](Cc1ccccc1)NC(=O)OCc1cncs1)C(=O)c1cnc2ccccc2n1` [Compound C12, 1S-2R-{1-Benzyl-2-hydroxy-3-[isobutyl-(quinoxaline-2-carbonyl)-amino]-propyl}-carbamic acid thiazol-5-ylmethyl ester], for which the inhibition at 30 min, 10 μM on CYP2C19 was 81%; against CYP2C9 (pH 7.4) it was 92%; on CYP3A4 (setting [4]) it was 70%; on CYP3A4 (setting [5]) it was 79%. At CYP2D6, the inhibition at 45 min, 10 μM stood at 0%. Besides, the inhibition at 15 min, 10 μM on CYP1A2 was found to be 21%. The compound further yielded a recovery at 15 min, 5 μM in “in vitro” (human) of 67%. Also, the EC50 in series [1] (setting [3]) was 60.3 µM. Further, at CYP3A4, the inhibition at 10 min, 10 μM came out at 93%. In addition, in series [2], the CC50 at 3 days was 61.7 µM.
Turning to `CC(C)CN(C[C@@H](O)[C@H](Cc1ccccc1)NC(=O)OCc1cncs1)C(=O)OCc1cncs1` [Compound C25], the inhibition at 30 min, 10 μM on CYP2C19 came to 97%; against CYP2C9 (pH 7.4), 95%; at CYP3A4 (setting [4]) it was 100%; on CYP3A4 (setting [5]) it was 79%. In addition, on CYP2D6, the inhibition at 45 min, 10 μM was determined as 91%. For the same compound, the inhibition at 15 min, 10 μM at CYP1A2 is 25%. This compound showed a recovery at 15 min, 5 μM in the series “in vitro” (human) of 63%. For the same compound, the EC50 in series [1] (setting [3]) was 69.2 µM. The inhibition at 10 min, 10 μM at CYP3A4 was determined as 89%. The CC50 at 3 days in series [2] is 77.6 µM.
Take `COc1ccc(C(=O)N(CC(C)C)C[C@@H](O)[C@H](Cc2ccccc2)NC(=O)OCc2cncs2)cc1` [Compound C5]: the inhibition at 30 min, 10 μM on CYP2C19 worked out at 86%; against CYP2C9 (pH 7.4) it was 94%; on CYP3A4 (setting [4]) it was 92%; on CYP3A4 (setting [5]) it was 82%. The inhibition at 45 min, 10 μM at CYP2D6 is 41%. The inhibition at 15 min, 10 μM at CYP1A2 was determined as 14%. The recovery at 15 min, 5 μM in “in vitro” (human) turned out to be 83%. The EC50 in series [1] (setting [3]) was 85.1 µM. The inhibition at 10 min, 10 μM on CYP3A4 was determined as 92%. For the same compound, the CC50 at 3 days in series [2] was 87.1 µM.
